Source: patent US6436963B1 (priority 1998, dated 2002)

Tests used:
Format in all cases: in vivo
[1] = test system: Phytophthora infestans; settings: tomatoes (cultivar Rutgers), sprayed to run off at 100 ppm, inoculated after 24 hours
[2] = test system: Leptosphaeria nodorum; assay: Glume Blotch of Wheat (LEPTNO), protectant spray test on wheat seedlings; settings: wheat (cultivar Monon), sprayed to run off at 100 ppm, inoculated after 24 hours
[3] = test system: Erysiphe graminis; assay: Powdery Mildew of Wheat (ERYSGT), protectant spray test on wheat seedlings; settings: wheat (cultivar Monon), sprayed to run off at 100 ppm, inoculated after 24 hours
[4] = test system: Puccinia recondita; assay: Brown Rust (PUCCRT), protectant spray test on wheat seedlings; settings: wheat (cultivar Monon), sprayed to run off at 100 ppm, inoculated after 24 hours

Compound	PHYTIN control of plant disease [1]	LEPTNO control of plant disease [2]	ERYSGT control of plant disease [3]	PUCCRT control of plant disease [4]
CNC(=O)C(=NOC)c1ccccc1COc1ncc(C(OC2CCCCO2)c2ccccc2)cc1Cl (mixture of isomers) [Example 57]	++ (++ = 75-100% control of plant disease)	++ (++ = 75-100% control of plant disease)	++ (++ = 75-100% control of plant disease)	++ (++ = 75-100% control of plant disease)
CNC(=O)C(=NOC)c1ccccc1COc1ncc(C(O)c2ccccc2)cc1Cl (racemic) [Example 1]	++ (++ = 75-100% control of plant disease)	++ (++ = 75-100% control of plant disease)	++ (++ = 75-100% control of plant disease)	++ (++ = 75-100% control of plant disease)
CNC(=O)C(=NOC)c1ccccc1COc1ncc(C(O)c2ccc(C)cc2C)cc1Cl (racemic) [Example 6]	++ (++ = 75-100% control of plant disease)	− (− = 0-24% control of plant disease)	++ (++ = 75-100% control of plant disease)	++ (++ = 75-100% control of plant disease)
CNC(=O)C(=NOC)c1ccccc1COc1ncc(C(O)c2ccc(F)cc2)cc1Cl (racemic) [Example 7]	++ (++ = 75-100% control of plant disease)	++ (++ = 75-100% control of plant disease)	++ (++ = 75-100% control of plant disease)	++ (++ = 75-100% control of plant disease)
CNC(=O)C(=NOC)c1ccccc1COc1ncc(C(O)c2ccc(Cl)cc2)cc1Cl (racemic) [Example 9]	++ (++ = 75-100% control of plant disease)	++ (++ = 75-100% control of plant disease)	++ (++ = 75-100% control of plant disease)	++ (++ = 75-100% control of plant disease)
CNC(=O)C(=NOC)c1ccccc1COc1ncc(C(O)c2ccc(C(C)(C)C)cc2)cc1Cl (racemic) [Example 10]	++ (++ = 75-100% control of plant disease)	++ (++ = 75-100% control of plant disease)	++ (++ = 75-100% control of plant disease)	++ (++ = 75-100% control of plant disease)
CNC(=O)C(=NOC)c1ccccc1COc1ncc(C(O)c2cccc(C(F)(F)F)c2)cc1Cl (racemic) [Example 12]	++ (++ = 75-100% control of plant disease)	++ (++ = 75-100% control of plant disease)	++ (++ = 75-100% control of plant disease)	++ (++ = 75-100% control of plant disease)
CNC(=O)C(=NOC)c1ccccc1COc1ncc(C(C)OCc2ccc(OC)cc2)cc1Cl (racemic) [Example 17]	− (− = 0-24% control of plant disease)	++ (++ = 75-100% control of plant disease)	++ (++ = 75-100% control of plant disease)	++ (++ = 75-100% control of plant disease)
CNC(=O)C(=NOC)c1ccccc1COc1ncc(C(C)OC(=O)C(C)(C)C)cc1Cl (racemic) [Example 24]	− (− = 0-24% control of plant disease)	++ (++ = 75-100% control of plant disease)	++ (++ = 75-100% control of plant disease)	++ (++ = 75-100% control of plant disease)
CNC(=O)C(=NOC)c1ccccc1COc1ncc(C(C)(O)c2ccccc2)cc1Cl (racemic) [Example 26]	++ (++ = 75-100% control of plant disease)	++ (++ = 75-100% control of plant disease)	++ (++ = 75-100% control of plant disease)	++ (++ = 75-100% control of plant disease)
CNC(=O)C(=NOC)c1ccccc1COc1ncc(C(C)OCc2ccc(Cl)cc2)cc1Cl (racemic) [Example 27]	− (− = 0-24% control of plant disease)	++ (++ = 75-100% control of plant disease)	++ (++ = 75-100% control of plant disease)	++ (++ = 75-100% control of plant disease)
CNC(=O)C(=NOC)c1ccccc1COc1ncc(C(OC(C)=O)c2ccccc2)cc1Cl (racemic) [Example 28]	− (− = 0-24% control of plant disease)	++ (++ = 75-100% control of plant disease)	− (− = 0-24% control of plant disease)	++ (++ = 75-100% control of plant disease)
CNC(=O)C(=NOC)c1ccccc1COc1ncc(C(OC(=O)c2ccccc2)c2ccccc2)cc1Cl (racemic) [Example 29]	+ (+ = 25-74% control of plant disease)	++ (++ = 75-100% control of plant disease)	+ (+ = 25-74% control of plant disease)	++ (++ = 75-100% control of plant disease)
CNC(=O)C(=NOC)c1ccccc1COc1ncc(C(OC(=O)C(C)(C)C)c2ccccc2)cc1Cl (racemic) [Example 30]	++ (++ = 75-100% control of plant disease)	++ (++ = 75-100% control of plant disease)	+ (+ = 25-74% control of plant disease)	++ (++ = 75-100% control of plant disease)
CNC(=O)C(=NOC)c1ccccc1COc1ncc(C(OC(=O)C(C)C)c2ccccc2)cc1Cl (racemic) [Example 32]	− (− = 0-24% control of plant disease)	− (− = 0-24% control of plant disease)	− (− = 0-24% control of plant disease)	++ (++ = 75-100% control of plant disease)
CCOC(=O)OC(c1ccccc1)c1cnc(OCc2ccccc2C(=NOC)C(=O)NC)c(Cl)c1 (racemic) [Example 33]	++ (++ = 75-100% control of plant disease)	++ (++ = 75-100% control of plant disease)	+ (+ = 25-74% control of plant disease)	++ (++ = 75-100% control of plant disease)
CNC(=O)C(=NOC)c1ccccc1COc1ncc(C(C)(OC)c2ccccc2)cc1Cl (racemic) [Example 35]	− (− = 0-24% control of plant disease)	++ (++ = 75-100% control of plant disease)	++ (++ = 75-100% control of plant disease)	++ (++ = 75-100% control of plant disease)
CCC(=O)OC(c1ccccc1)c1cnc(OCc2ccccc2C(=NOC)C(=O)NC)c(Cl)c1 (racemic) [Example 36]	++ (++ = 75-100% control of plant disease)	++ (++ = 75-100% control of plant disease)	+ (+ = 25-74% control of plant disease)	++ (++ = 75-100% control of plant disease)
CNC(=O)C(=NOC)c1ccccc1COc1ncc(C(OC(=O)C(F)(F)F)c2ccccc2)cc1Cl (racemic) [Example 37]	++ (++ = 75-100% control of plant disease)	++ (++ = 75-100% control of plant disease)	+ (+ = 25-74% control of plant disease)	++ (++ = 75-100% control of plant disease)
CNC(=O)C(=NOC)c1ccccc1COc1ncc(C(OC)c2ccccc2)cc1Cl (racemic) [Example 38]	− (− = 0-24% control of plant disease)	++ (++ = 75-100% control of plant disease)	+ (+ = 25-74% control of plant disease)	++ (++ = 75-100% control of plant disease)
CNC(=O)C(=NOC)c1ccccc1COc1ncc(C(C)O)cc1Cl (racemic) [Example 40]	+ (+ = 25-74% control of plant disease)	++ (++ = 75-100% control of plant disease)	+ (+ = 25-74% control of plant disease)	++ (++ = 75-100% control of plant disease)
CNC(=O)C(=NOC)c1ccccc1COc1ncc(C(OC(C)=O)c2ccsc2)cc1Cl (stereo not shown) [Example 121]	++ (++ = 75-100% control of plant disease)		++ (++ = 75-100% control of plant disease)	
CCOC(C)(c1ccccc1)c1cnc(OCc2ccccc2C(=NOC)C(=O)NC)c(Cl)c1 (stereo not shown) [Example 122]	− (− = 0-24% control of plant disease)		++ (++ = 75-100% control of plant disease)	
